Reference: patent publication US5250544A, “New piperidine tetrahydropyridine and pyrrolidine compounds” (Adir et Compagnie, priority 1990, dated 1993)

Experiment: Evaluation of the antihypertensive activity: arterial pressure and heart rate in anesthetized dogs, i.v.
Format: in vivo
Settings: anesthetized mongrel dogs, versus flesinoxan racemic or isomer (+)
Procedure: Mongrel dogs (males and females) were anesthetized with phenobarbital (30 mg/kg i.v.) and then placed under artificial respiration (Bird Mark VII respirator). The arterial pressure was measured using a catheter placed in the abdominal aorta via the femoral artery. This catheter is connected to a pressure cell (Statham® R23 D6) connected to a recorder.
The heart rate was measured using a Gould Biotach®.
The sympathetic nervous activity was recorded at the level of the renal nerve using a silver electrode. […] The compounds to be examined were administered intravenously.

O=C(NCCN1CCN(c2cccc3c2OC[C@H](CO)O3)CC1)c1ccc(F)cc1 (single isomer, unassigned) [Flesinoxan (+) Isomer]
activity compared with reference product flesinoxan (antihypertensive study, Table II): most active isomer of flesinoxan
